Bridge positions count the residues as written; N and C are the ends. Square brackets hold non-standard residues; d marks the D form. Peptide text beside a SMILES is read from it. * marks the point of attachment. ξ: configuration not given here. Phe(4-CONH2) = NC(=O)c1ccc(C[C@H](N)C(=O)O)cc1; Phe(4-COOH) = N[C@@H](Cc1ccc(C(=O)O)cc1)C(=O)O; Bip = N[C@@H](Cc1ccc(-c2ccccc2)cc1)C(=O)O; Phe(3-Me) = Cc1cccc(C[C@H](N)C(=O)O)c1; Val(3-OH) = CC(C)(O)[C@H](N)C(=O)O; Cha = N[C@@H](CC1CCCCC1)C(=O)O; Thr(3ξ) = CC(O)[C@H](N)C(=O)O; Carboxymethyl = O=C(O)C*; Orn = NCCC[C@H](N)C(=O)O; Aun = NCCCCCCCCCCC(=O)O; Dab = NCC[C@H](N)C(=O)O; Dap = NC[C@H](N)C(=O)O; AEEA = NCCOCCOCC(=O)O; Piv = CC(C)(C)C(=O)*
Molecular target: T1, PD-1/PD-L1 interaction (PE-labeled human PD-L1-Ig binding to Jurkat cell line over-expressing human PD-1) (Homo sapiens, UniProt Q15116)
T1 construct: expressed in transfected cells; host or cells: Jurkat
T1 sequence (Q15116 25-288): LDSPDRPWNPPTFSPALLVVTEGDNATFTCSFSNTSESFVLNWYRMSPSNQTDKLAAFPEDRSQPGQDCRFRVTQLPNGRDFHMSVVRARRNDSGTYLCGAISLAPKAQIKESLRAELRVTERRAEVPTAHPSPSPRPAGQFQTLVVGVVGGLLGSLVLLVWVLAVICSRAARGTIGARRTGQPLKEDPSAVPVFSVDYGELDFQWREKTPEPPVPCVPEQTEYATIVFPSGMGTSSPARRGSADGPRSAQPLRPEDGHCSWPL
Assay: Jurkat-PD-1 Cell Binding High-Content Screening Assay (CBA)
Assay type: cell-based
Conditions: Jurkat cell line over-expressing human PD-1; PE-labeled PD-L1-Ig 20 nM final; read-out: Jurkat hPD1-PDL1 IC50
In short: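 Jurkat cells over-expressing human PD-1 (8×10^3 per well, DMEM/10% FCS) preincubated with compound 2 h at 37° C, then PE-labeled human PD-L1-Ig (20 nM final) added for 1 h. Cells fixed with paraformaldehyde, Hoechst-stained, and bound fluorescence quantified by high-content imaging.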

Compound | IC50
Cc1cccc(C[C@@H]2NC(=O)[C@H](CC(=O)O)NC(=O)[C@H](Cc3ccc(OCC(=O)O)cc3)NC(=O)[C@H](CCN)NC(=O)CSC[C@@H](C(=O)N[C@@H](CCN)C(=O)NCCCCCCCCCCC(=O)O)NC(=O)[C@H](CO)NC(=O)[C@H](C(C)(C)O)NC(=O)[C@H](CC3CCCCC3)NC(=O)[C@H](CCN)NC(=O)[C@@H](CC(C)C)NC(=O)[C@H](CCCN)NC(=O)[C@H](Cc3ccc(C(N)=O)cc3)NC(=O)[C@H](Cc3ccc(-c4ccccc4)cc3)NC(=O)[C@H](Cc3ccc(C(N)=O)cc3)NC2=O)c1 [Compound 3698] ({CH2CO}-[Dab]Y(Carboxymethyl)D[Phe(3-Me)][Phe(4-CONH2)][Bip][Phe(4-CONH2)][Orn][dL][Dab][Cha][Val(3-OH)]SC[Dab][Aun]-OH; thioether N-14) | 15.6 nM
CC(C)C[C@H]1NC(=O)[C@H](CCCN)NC(=O)[C@H](Cc2ccc(O)cc2)NC(=O)[C@H](Cc2ccc(-c3ccccc3)cc2)NC(=O)[C@H](CCCCNC(=O)C(C)(C)C)NC(=O)[C@H](Cc2c[nH]c3ccccc23)NC(=O)[C@H](CC(=O)O)NC(=O)[C@H](Cc2ccc(OCC(=O)O)cc2)NC(=O)[C@H](C(C)O)NC(=O)CSC[C@@H](C(=O)NCCOCCOCC(=O)NCCCCCCCCCCC(=O)O)NC(=O)[C@H](CO)NC(=O)[C@H](Cc2cnc[nH]2)NC(=O)[C@H](CC2CCCCC2)NC(=O)[C@H](CCN)NC1=O (stereo partly drawn) [Compound 3699] ({CH2CO}-[Thr(3ξ)]Y(Carboxymethyl)DWK(Piv)[Bip]Y[Orn][dL][Dab][Cha]HSC[AEEA][Aun]-OH; thioether N-14) | 96.9 nM
CC(C)C[C@@H]1NC(=O)[C@H](Cc2c[nH]c3ccccc23)NC(=O)[C@H](CC(=O)O)NC(=O)[C@H](Cc2ccc(OCC(=O)O)cc2)NC(=O)[C@H](CCN)NC(=O)CSC[C@@H](C(=O)NCCOCCOCC(=O)NCCCCCCCCCCC(=O)O)NC(=O)[C@H](C(C)O)NC(=O)[C@H](C(C)C)NC(=O)[C@H](CC2CCCCC2)NC(=O)[C@H](Cc2cnc[nH]2)NC(=O)[C@@H](CC(C)C)NC(=O)[C@H](CCCN)NC(=O)[C@H](C(C)C)NC(=O)[C@H](Cc2ccc(-c3ccccc3)cc2)NC1=O (stereo partly drawn) [Compound 3700] ({CH2CO}-[Dab]Y(Carboxymethyl)DWL[Bip]V[Orn][dL]H[Cha]V[Thr(3ξ)]C[AEEA][Aun]-OH; thioether N-14) | 56.7 nM
CC(C)C[C@@H]1NC(=O)[C@H](Cc2c[nH]c3ccccc23)NC(=O)[C@H](CC(=O)O)NC(=O)[C@H](Cc2ccc(OCC(=O)O)cc2)NC(=O)[C@H](CCN)NC(=O)CSC[C@@H](C(=O)NCCOCCOCC(=O)NCCCCCCCCCCC(=O)O)NC(=O)[C@H](CO)NC(=O)[C@H](C(C)C)NC(=O)[C@H](CC2CCCCC2)NC(=O)[C@H](Cc2cnc[nH]2)NC(=O)[C@@H](CC(C)C)NC(=O)[C@H](CCCN)NC(=O)[C@H](C(C)C)NC(=O)[C@H](Cc2ccc(-c3ccccc3)cc2)NC1=O [Compound 3701] ({CH2CO}-[Dab]Y(Carboxymethyl)DWL[Bip]V[Orn][dL]H[Cha]VSC[AEEA][Aun]-OH; thioether N-14) | 92.2 nM
Cc1cccc(C[C@@H]2NC(=O)[C@H](CC(=O)O)NC(=O)[C@H](Cc3ccc(OCC(=O)O)cc3)NC(=O)[C@H](C(C)O)NC(=O)CSC[C@@H](C(=O)NCCOCCOCC(=O)NCCCCCCCCCCC(=O)O)NC(=O)[C@H](Cc3cnc[nH]3)NC(=O)[C@H](C(C)O)NC(=O)[C@H](CC3CCCCC3)NC(=O)[C@H](CCN)NC(=O)[C@@H](CC(C)C)NC(=O)[C@H](CCCN)NC(=O)[C@H](C(C)C)NC(=O)[C@H](Cc3ccc(-c4ccccc4)cc3)NC(=O)[C@H](C(C)C)NC2=O)c1 (stereo partly drawn) [Compound 3703] ({CH2CO}-[Thr(3ξ)]Y(Carboxymethyl)D[Phe(3-Me)]V[Bip]V[Orn][dL][Dab][Cha][Thr(3ξ)]HC[AEEA][Aun]-OH; thioether N-14) | 23.4 nM
Cc1cccc(C[C@@H]2NC(=O)[C@H](CC(=O)O)NC(=O)[C@H](Cc3ccc(OCC(=O)O)cc3)NC(=O)[C@H](C(C)O)NC(=O)CSC[C@@H](C(=O)N[C@@H](CCN)C(=O)NCCCCCCCCCCC(=O)O)NC(=O)[C@H](CO)NC(=O)[C@H](Cc3cnc[nH]3)NC(=O)[C@H](CC3CCCCC3)NC(=O)[C@H](CCN)NC(=O)[C@@H](CC(C)C)NC(=O)[C@H](CCCN)NC(=O)[C@H](Cc3ccc(OCC(=O)O)cc3)NC(=O)[C@H](Cc3ccc(-c4ccccc4)cc3)NC(=O)[C@H](Cc3ccc(C(=O)O)cc3)NC2=O)c1 (stereo partly drawn) [Compound 3704] ({CH2CO}-[Thr(3ξ)]Y(Carboxymethyl)D[Phe(3-Me)][Phe(4-COOH)][Bip]Y(Carboxymethyl)[Orn][dL][Dab][Cha]HSC[Dab][Aun]-OH; thioether N-14) | 21.9 nM
Cc1cccc(C[C@@H]2NC(=O)[C@H](CC(=O)O)NC(=O)[C@H](Cc3ccc(OCC(=O)O)cc3)NC(=O)[C@H](CN)NC(=O)CSC[C@@H](C(=O)N[C@@H](CCN)C(=O)NCCCCCCCCCCC(=O)O)NC(=O)[C@H](CO)NC(=O)[C@H](Cc3cnc[nH]3)NC(=O)[C@H](CC3CCCCC3)NC(=O)[C@H](CCN)NC(=O)[C@@H](CC(C)C)NC(=O)[C@H](CCCN)NC(=O)[C@H](Cc3ccc(OCC(=O)O)cc3)NC(=O)[C@H](Cc3ccc(-c4ccccc4)cc3)NC(=O)[C@H](Cc3ccc(C(=O)O)cc3)NC2=O)c1 [Compound 3705] ({CH2CO}-[Dap]Y(Carboxymethyl)D[Phe(3-Me)][Phe(4-COOH)][Bip]Y(Carboxymethyl)[Orn][dL][Dab][Cha]HSC[Dab][Aun]-OH; thioether N-14) | 24.2 nM
Cc1cccc(C[C@@H]2NC(=O)[C@H](CC(=O)O)NC(=O)[C@H](Cc3ccc(OCC(=O)O)cc3)NC(=O)[C@H](Cc3ccccc3)NC(=O)CSC[C@@H](C(=O)N[C@@H](CCN)C(=O)NCCCCCCCCCCC(=O)O)NC(=O)[C@H](CO)NC(=O)[C@H](Cc3cnc[nH]3)NC(=O)[C@H](CC3CCCCC3)NC(=O)[C@H](CCN)NC(=O)[C@@H](CC(C)C)NC(=O)[C@H](CCCN)NC(=O)[C@H](Cc3ccc(OCC(=O)O)cc3)NC(=O)[C@H](Cc3ccc(-c4ccccc4)cc3)NC(=O)[C@H](Cc3ccc(C(=O)O)cc3)NC2=O)c1 [Compound 3706] ({CH2CO}-FY(Carboxymethyl)D[Phe(3-Me)][Phe(4-COOH)][Bip]Y(Carboxymethyl)[Orn][dL][Dab][Cha]HSC[Dab][Aun]-OH; thioether N-14) | 70.3 nM
Cc1cccc(C[C@@H]2NC(=O)[C@H](CC(=O)O)NC(=O)[C@H](Cc3ccc(OCC(=O)O)cc3)NC(=O)[C@H](CN)NC(=O)CSC[C@@H](C(=O)N[C@@H](CCN)C(=O)NCCCCCCCCCCC(=O)O)NC(=O)[C@H](Cc3cnc[nH]3)NC(=O)[C@H](C(C)O)NC(=O)[C@H](CC3CCCCC3)NC(=O)[C@H](CCN)NC(=O)[C@@H](CC(C)C)NC(=O)[C@H](CCCN)NC(=O)[C@H](Cc3ccc(OCC(=O)O)cc3)NC(=O)[C@H](Cc3ccc(-c4ccccc4)cc3)NC(=O)[C@H](Cc3ccc(C(=O)O)cc3)NC2=O)c1 (stereo partly drawn) [Compound 3708] ({CH2CO}-[Dap]Y(Carboxymethyl)D[Phe(3-Me)][Phe(4-COOH)][Bip]Y(Carboxymethyl)[Orn][dL][Dab][Cha][Thr(3ξ)]HC[Dab][Aun]-OH; thioether N-14) | 11.4 nM
